Patent US20130079493A1, “Method for prepairing peptide inhibitors of a lipid-activated enzyme and peptides produced by same” (ESTAJA OY, priority 2010, published 2013)
Where no end group is shown, it is not given here.

Columns and labels:
[1] = target: T1, human phospholipase A2, content of tears (P14555) (Homo sapiens, UniProt P14555); experiment: Activity of human tear phospholipase A2 towards C28-O-PHPM in the presence of peptide (pyrene monomer fluorescence); type: biochemical; settings: 2 nM enzyme, 40 nM or 80 nM peptide; FIG. 2
T1 construct: Reaction mixture contained 2 nM of phospholipase of human tears; from tissue; host or cells: human tear fluid
T1 sequence (P14555 21-144): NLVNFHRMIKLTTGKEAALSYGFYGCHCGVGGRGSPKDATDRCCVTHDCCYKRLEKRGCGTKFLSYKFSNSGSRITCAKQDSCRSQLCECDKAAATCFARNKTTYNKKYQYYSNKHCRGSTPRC
Method: Activity of secretory phospholipase A2 (Apis mellifica) of class III towards C28—O—PHPM was measured in the presence of peptide KMYFNLI (SEQ ID NO:1). Reaction mixture contained 2 nM of phospholipase A2, 2 nM or 4 nM of the peptide and 1.25 μM C28—O—PHPM (1-octacosanyl-2-(6-pyren-1-yl)hexanoyl-sn-glycero-3-phosphatidylmethanol) in 2.0 ml of 5 mM HEPES, 0.1 mM EDTA, 1 mM CaCl2, pH 7.4 at 37° C. with stirring. The assay was performed with or without preincubation step. The enzymatic reaction was followed by measuring the pyrene monomer fluorescence intensity at 400 nm using a spectrofluorometer. Excitation wavelength was 343 nm and the excitation and emission slits were 10 nm.
Activity of human phospholipase A2, content of tears (P14555), was measured in the presence of peptide AALSYGFYG (SEQ ID NO:68). Reaction mixture contained 2 nM of phospholipase of human tears, 40 nM or 80 nM of the peptide and 1.25 μM C28—O—PHPM (1-octacosanyl-2-(6-pyren-1-yl)hexanoyl-sn-glycero-3-phosphatidylmethanol) in 2.0 ml of 5 mM HEPES, 0.1 mM EDTA, 1 mM CaCl2, pH 7.4 at 37° C. with stirring. The assay was performed with or without preincubation step. The enzymatic reaction was followed as described in Example 2.

[2] = target: secretory phospholipase A2 (Apis mellifica) of class III (Apis mellifera, UniProt P00630)
secretory phospholipase A2 (Apis mellifica) of class III, sequence (P00630 34-167 limits assumed): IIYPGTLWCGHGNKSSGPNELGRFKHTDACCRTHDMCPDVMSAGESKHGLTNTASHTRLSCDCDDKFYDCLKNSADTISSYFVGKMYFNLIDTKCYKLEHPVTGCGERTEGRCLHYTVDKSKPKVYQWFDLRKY

AALSYGFYG (not fully specified (C-terminus); listed as Homo sapiens) [synthetic peptide corresponding to residues 17-25 of human secretory PLA2 present in tear fluid]
inhibition of tear fluid PLA2 activity [1]: inhibited

KMYFNLI
inhibition of bee venom PLA2 enzyme [2]: complete inhibition | peptide concentration at which inhibition was observed [2]: 2 nM
